PubChem BioAssay (NCI)
Several values for one entry are separate records, joined by “and”; a condition that tells them apart may be missing. Equal values may be shown once.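 All cell lines were grown in 96-well plates and treated with compound for 48 hours. The concentration for 50% growth inhibition is given as GI50. TGI: concentration producing complete growth inhibition.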

Legend:
Assay in all cases: DTP human tumour cell line panel, 48 h
HT29 colon = tested on: HT29 colon
A549 NSCLC = tested on: A549 NSCLC
OVCAR-5 ovarian = tested on: OVCAR-5 ovarian
LOX IMVI melanoma = tested on: LOX IMVI melanoma
HOP-62 NSCLC = tested on: HOP-62 NSCLC
SF-268 CNS = tested on: SF-268 CNS
A498 renal = tested on: A498 renal
NCI/ADR-RES ovarian = tested on: NCI/ADR-RES ovarian
SK-OV-3 ovarian = tested on: SK-OV-3 ovarian
NCI-H23 lung = tested on: NCI-H23 lung

Compound	GI50 (HT29 colon)	TGI (HT29 colon) [µM]	GI50 (A549 NSCLC) [µM]	TGI (A549 NSCLC) [µM]	GI50 (OVCAR-5 ovarian) [µM]	TGI (OVCAR-5 ovarian) [µM]	GI50 (LOX IMVI melanoma) [µM]	TGI (LOX IMVI melanoma) [µM]	GI50 (HOP-62 NSCLC) [µM]	TGI (HOP-62 NSCLC) [µM]	GI50 (SF-268 CNS) [µM]	TGI (SF-268 CNS) [µM]	GI50 (A498 renal) [µM]	TGI (A498 renal) [µM]	GI50 (NCI/ADR-RES ovarian) [µM]	TGI (NCI/ADR-RES ovarian) [µM]	GI50 (SK-OV-3 ovarian) [µM]	TGI (SK-OV-3 ovarian) [µM]	GI50 (NCI-H23 lung) [µM]	TGI (NCI-H23 lung) [µM]
CC(C)(C)NC(=O)[C@H]1CC[C@H]2[C@@H]3CC[C@H]4NC(=O)C=C[C@]4(C)[C@H]3CC[C@]12C	44.9 µM and 69.6 µM	> 100	> 100	> 100	> 100	> 100	> 100	> 100	> 100	> 100	> 100	> 100	54.2	> 100	> 100	> 100	> 100	> 100	> 100	> 100
NC(=O)CC1(O)C=C(Br)C(=O)C(Br)=C1	4.03 µM	19	19	37.8	8.08	21.4	3.65	13	26.1	> 61.2	9.09	21.2	15.8	29.3	10.1	> 94.4	17.9	32.3	8.99	24.6
O=C(COc1ccc(OCC(=O)N2C(=O)CN(c3ccccc3)C2=S)cc1)N1C(=O)CN(c2ccccc2)C1=S	> 25 µM	> 100	> 25	> 100	> 25	> 100	29.6	> 100	> 25	> 100		> 100	> 25	> 100	> 25	> 100		> 100	> 25	> 100
COc1c(O)cc2c(c1O)C(=O)C1=C(CCCC1)C2=O		40		87.3		> 100		33.6		> 100		> 100		47.7		51.5		48.8		41.3
O=C(CCl)Nc1cc(Cl)c(Cl)cc1Cl		3.7		4.56		3.72		3.03		3.89		4.62		> 10		5.31		> 10		3.28
NC(Cc1c[nH]c2ccc(F)cc12)C(=O)O (stereo not drawn)	911 µM	> 2500	855	> 2500	814	> 2500	509	1860	480	2160	677	> 2500	580	1630	675	> 2500	451	1370	1540	> 2500
Clc1ccc2ncc(-c3cccc(NC4CNC4)n3)n2c1	3.21 µM	> 100	4.71	> 100	6.45	> 100	2.47	13.8	5.98	65.4	8.7	33	5.7	19.7	33.5	> 100	9.24	> 100	7.66	36.3
COc1cccc2nc3ccccc3nc12		> 100		> 100		> 100		> 100		> 100		> 100		> 100		> 100		> 100		> 100
Cc1ccc(-c2nc3cc(Cl)c(Cl)cc3nc2C#N)cc1	> 100 µM	> 100	> 100	> 100	46.2	> 100	> 100	> 100	> 100	> 100	> 100	> 100	> 100	> 100	81.2	> 100	> 100	> 100	> 100	> 100
O=C1C=CC(=Nc2cccc3c(N=C4C=CC(=O)O4)cccc23)O1		> 100		> 100		> 100		91.2		> 100		> 100		> 100		> 100		> 100		> 100
Nc1nnnc2nc[nH]c12	3.79 µM	> 100	6.42	> 100	0.623	> 100	0.455	> 25.8	0.907	> 58	3.19	> 100	1.87	15.3	0.742	> 26	0.327	6.22	3.19	40.9
C/C(=N/O)c1ccc2c(c1)/C(=N/O)c1ccccc1-2	18.2 µM	40.7	24	62.9	22.8	53.5	16.3	33.3	25	56.4	32.2	> 100	34.9	> 100	21	48.6	35.7	> 100	18.3	34.2
